According to patent US20180071317A1, “USE OF AGENTS THAT ALTER THE PERITUMORAL ENVIRONMENT FOR THE TREATMENT OF CANCER” (SERVICIO ANDALUZ DE SALUD, priority 2011, published 2018):

What was measured:
[1] = test system: fibroblasts (PHF) co-cultivated with tumor cell carcinoma of urinary bladder (5637); assay: Marker expression (IHC) in PHF co-cultured with 5637 tumor cells; format: cell-based, human; conditions: co-culture with 5637; SP 1 μM + antagonist 1 μM; 48 h
Procedure: (§1) All cultures were maintained 48 hours, following which the same cells were included in paraffin blocks for subsequent analysis of the expression of different markers by immunohistochemistry (see Example 1). […] All experiments were carried out sixfold. Analyzed markers in fibroblast cells (stromal cells) were: TGF-α, TGF-β1, TGF-β2, TGF-β3, SPARC, MMP-3, MMP-7, MMP-9, MMP-11, MMP-13 and MMP-14.

[2] = test system: fibroblasts (PHF) co-cultured with tumor cells in human prostate carcinoma (22Rv1); assay: Marker expression (IHC) in PHF co-cultured with 22Rv1 tumor cells; format: cell-based; conditions: co-culture with 22Rv1; SP 1 μM + antagonist 1 μM; 48 h;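 note: cultures grown on fresh plasma from a healthy donor, each experiment run sixfold, values give the percentage of fibroblasts positive for the given marker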
Procedure: as §1

[3] = test system: fibroblasts (PHF) co-cultured with human neuroblastoma tumor cells (KELLY); assay: Marker expression (IHC) in PHF co-cultured with KELLY tumor cells; format: cell-based; conditions: PHF co-cultured with KELLY + SP + NK1 antagonist;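 note: Co-cultures grown on healthy-donor human blood plasma, run in six replicates, value is percentage of fibroblasts positive for each marker, compared with fibroblasts cultured alone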
Procedure: as §1

[4] = test system: fibroblasts (PHF) co-cultured with tumor cells of human breast carcinoma (MCF-7); assay: Marker expression (IHC) in PHF co-cultured with MCF-7 tumor cells; format: cell-based; conditions: co-culture with MCF-7; SP 1 μM + antagonist 1 μM; 48 h;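 note: value is the percentage of fibroblasts positive for each marker, with fibroblasts cultured alone as reference, grown in fresh plasma from a healthy donor, six replicates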
Procedure: as §1

[5] = test system: mononuclear cells; assay: Marker expression (immunohistochemistry) in mononuclear blood cells with SP alone or with NK1 antagonists; format: cell-based, human; conditions: SP 1 μM + antagonist 1 μM; 48 h
From the text: Briefly, heparinized blood from healthy donors was centrifuged so as to separate the various components thereof. Red blood cells remained at the bottom of the tube. Above them was a small white layer composed of the white blood cells and above, on top of the tube, the blood plasma. The layer of white cells was distributed in a culture plate of 24 wells by adding in each the same concentration of blood plasma from the same donor, supplemented with 1% antibiotic-antimycotic (Invitrogen). In each well, approximately 1000 cells (PHF) skin from the dermis were further added, obtained as previously described in Example 2. […] After 48 hours of incubation, cells were collected and embedded in paraffin for expression analysis by immunohistochemical techniques (as described in Example 1).
The expression of TGF molecular markers (anti-TGF 2, SAB4502956) and NF-kB (anti-NF-kB, SAB4501992) using specific antibodies against them were analyzed. All antibodies used were rabbit polyclonal antibodies obtained from Sigma Aldrich and were used at a concentration of 1/1000. All experiments were carried out sixfold.

[6] = test system: fibroblasts of tumors produced by human glioma tumor line (GAMG); assay: Marker expression (IHC) in fibroblasts of tumor or peritumoral area, mouse model, GAMG; format: in vivo; conditions: GAMG tumors in mice, 30 mg/kg/day oral, 7 days
Procedure: In vitro tests conducted in Example 5 are now carried out in an experimental model in mice in vivo. […] Subsequently, the expression in fibroblasts tumoral and peritumoral area of molecular markers associated with progression and maintenance of tumors: TGF-α, TGF-β1, TGF-β2, TGF-β3, MMP-7, MMP-11, MMP-14 were analyzed by immunohistochemistry.
Were injected with 2×10^7 cells tumors (corresponding, in each case to each of the tumor types as specified in Table 9) in 200 of PBS subcutaneously μl. […] Mice were randomized into two groups when the tumors reached a volume of 75 mm^3 One group was treated with non-peptide receptor antagonists NK1 and the other with placebo 200μ1. […] Tumors and samples of non-neoplastic stromal areas remote from the tumor were halved, formalin fixed (4%) and then were included in paraffin blocks for analysis by immunohistochemistry.
The expression on fibroblast cells obtained in the animal model was analyzed by immunohistochemistry, of the above markers: TGF-α, TGF-β1, TGF-β2, TGF-β3, MMP-7, MMP-1 1, MMP-14MP-14. Tables 32 to 35 depict the type of label used and the average percentage of fibroblasts present in non-tumor areas, tumor and peritumoral (±SD) which were expressing the marker shown in each of the tumor types developed from of the different cell lines used. This process was realized in mice treated with non-peptide antagonists of NK1 receptor and in untreated animals (control).

[7] = test system: human primary fibroblasts (PHF); assay: Marker expression (immunohistochemistry) in human primary fibroblasts with SP alone or with NK1 antagonists; format: cell-based; conditions: SP 1 μM + antagonist 1 μM; 48 h;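 note: primary human dermal fibroblasts, immunostained with rabbit polyclonal antibodies against each marker, value is percentage of stained cells among all cells counted in 20 fields at 400× per section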
[8] = test system: fibroblasts (PHF) co-cultured with human choriocarcinoma tumor cells (AC-1M32); assay: Marker expression (IHC) in PHF co-cultured with AC-1M32 tumor cells; format: cell-based; conditions: co-culture with AC-1M32; SP 1 μM + antagonist 1 μM; 48 h;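 note: Read-out is the percentage of PHF fibroblasts positive for each marker, with cells grown in fresh healthy-donor blood plasma, six replicates, reference being fibroblasts cultured alone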
Procedure: as §1

CC(=O)N1CCN([C@H]2CCN(C(=O)N(C)[C@H](C)c3cc(C(F)(F)F)cc(C(F)(F)F)c3)[C@@H](c3ccc(F)cc3C)C2)CC1 [Casopitant]
0%: PHF cells expressing MMP-3 [1] | PHF cells expressing MMP-7 [1] | PHF cells expressing MMP-9 [1] | PHF cells expressing MMP-11 [1] | PHF cells expressing MMP-13 [1] | PHF cells expressing MMP-14 [1] | PHF cells expressing SPARC [1] | PHF cells expressing TGF-α [1] | PHF cells expressing TGF-β1 [1] | PHF cells expressing TGF-β2 [1] | PHF cells expressing TGF-β3 [1] | PHF cells expressing MMP-3 [2] | PHF cells expressing MMP-7 [2] | PHF cells expressing MMP-9 [2] | PHF cells expressing MMP-11 [2] | PHF cells expressing MMP-13 [2] | PHF cells expressing MMP-14 [2] | PHF cells expressing SPARC [2] | PHF cells expressing TGF-α [2] | PHF cells expressing TGF-β1 [2] | PHF cells expressing TGF-β2 [2] | PHF cells expressing TGF-β3 [2] | cells expressing MMP-3 [3] | cells expressing MMP-7 [3] | cells expressing MMP-9 [3] | cells expressing MMP-11 [3] | cells expressing MMP-13 [3] | cells expressing MMP-14 [3] | cells expressing SPARC [3] | cells expressing TGF-α [3] | cells expressing TGF-β1 [3] | cells expressing TGF-β2 [3] | cells expressing TGF-β3 [3] | PHF cells expressing MMP-3 [4] | PHF cells expressing MMP-7 [4] | PHF cells expressing MMP-9 [4] | PHF cells expressing MMP-11 [4] | PHF cells expressing MMP-13 [4] | PHF cells expressing MMP-14 [4] | PHF cells expressing SPARC [4] | PHF cells expressing TGF-α [4] | PHF cells expressing TGF-β1 [4] | PHF cells expressing TGF-β2 [4] | PHF cells expressing TGF-β3 [4] | mononuclear cells expressing NF-kB [5] | mononuclear cells expressing TGF-β [5] | fibroblasts expressing MMP-7 [6] | fibroblasts expressing MMP-11 [6] | fibroblasts expressing MMP-14 [6] | fibroblasts expressing TGF-α [6] | fibroblasts expressing TGF-β 1 [6] | fibroblasts expressing TGF-β 2 [6] | fibroblasts expressing TGF-β 3 [6] | PHF cells expressing MMP-3 [7] | PHF cells expressing MMP-7 [7] | PHF cells expressing MMP-9 [7] | PHF cells expressing MMP-11 [7] | PHF cells expressing MMP-13 [7] | PHF cells expressing MMP-14 [7] | PHF cells expressing SPARC [7] | PHF cells expressing TGFα [7] | PHF cells expressing TGFβ 1 [7] | PHF cells expressing TGFβ 2 [7] | PHF cells expressing TGFβ 3 [7] | PHF cells expressing MMP-3 [8] | PHF cells expressing MMP-7 [8] | PHF cells expressing MMP-9 [8] | PHF cells expressing MMP-11 [8] | PHF cells expressing MMP-13 [8] | PHF cells expressing MMP-14 [8] | PHF cells expressing SPARC [8] | PHF cells expressing TGF-α [8] | PHF cells expressing TGF-β1 [8] | PHF cells expressing TGF-β2 [8] | PHF cells expressing TGF-β3 [8]
